Results taken from US10533161B2, “NADPH oxidase proteins” (Universite Grenoble Alpes, priority 2014, dated 2020).
“Also recorded” adds a separate entry of the source.

How the values were obtained:
eukaryotic NOX = settings: commercial molecules targeting the eukaryotic NOX; cited from earlier work
SpNox = experiment: NADPH oxidase activity of SpNox by colorimetry (NBT reduction, 96-well plate); format: biochemical, Streptococcus pneumoniae; settings: absorbance at 560 nm, 5 concentrations 0.01-100 μM (DPI 0.005-50 μM), triplicate
Procedure: The oxidase activity is determined by measuring the kinetics of reduction of NBT by the O2.^− ions, by monitoring the increase in absorbance at 560 nm (molar extinction coefficient of NBT: ε560=30 000 mM^−1.cm^−1). It is also possible to use a wavelength of 550 nm SpNox is incubated with a reaction mixture containing the molecule to be tested, NBT, FAD and the protein storage buffer for 5 to 20 min at 25° C. The reaction is then started by adding NADPH.
The NADPH oxidase activity is then quantified at the end point by determining the intensity of the coloration compared to a positive control. The positive control is carried out with the SpNox protein alone, without the molecule to be tested.
The compounds present in each well of the plate are, as final concentration: • 0.1 μg of SpNox; • 2 μM of FAD; • 125 μM of NBT; • 150 μM NADPH; • Molecule A; • SpNox storage buffer q.s. 200 μL.
All the experiments were carried out in triplicate and each molecule was tested at 5 different concentrations. The concentration range is deliberately wide so as to be able to include the possible IC50 values of each molecule. The concentrations selected are: 0.01-0.1-1-10-100 μM.

Row | SMILES | Property (NADPH oxidase activity of the eukaryotic NOX) (eukaryotic NOX) | Effect on the NADPH oxidase activity of SpNox (SpNox)
1 | c1ccc(Cn2nnc3c(Sc4nc5ccccc5o4)ncnc32)cc1 [VAS2870] | Inhibitor | 
2 | Cc1ccccc1-n1sc2cc(F)ccc2c1=O [Thr101] | Inhibitor | inhibitors of SpNox
3 | CC1=C(O)C(=O)C=C2C1=CC=C1[C@@]2(C)CC[C@@]2(C)[C@@H]3C[C@](C)(C(=O)O)CC[C@]3(C)CC[C@]12C [Celastrol] | Inhibitor | inhibitors of SpNox
4 | Oc1cc(O)c2c(c1)O[C@H](c1ccc(O)c(O)c1)[C@@H](O)C2 [Catechin] | Inhibitor | inhibitors of SpNox
5 | O=C(O[C@@H]1Cc2c(O)cc(O)cc2O[C@@H]1c1ccc(O)c(O)c1)c1cc(O)c(O)c(O)c1 [Epicatechin gallate] | Inhibitor | inhibitors of SpNox
6 | CCCCC/C=C\C/C=C\C/C=C\C/C=C\CCCC(=O)O [Arachidonic acid (AA), Arachidonic acid] | Activator | stimulates the production of superoxide; also recorded: activator of SpNox
7 | c1ccc2c(c1)[IH]c1ccccc1-2 [DPI, diphenyleneiodonium chloride] | Inhibitor | inhibits the reaction; also recorded: inhibitory effect; also recorded: inhibitors of SpNox
8 | O=c1c2ccccc2[se]n1-c1ccccc1 [Ebselen] | Inhibitor | inhibitors of SpNox
